Data from PMC8518915, “Evaluation of 4‐(4‐Fluorobenzyl)piperazin‐1‐yl]‐Based Compounds as Competitive Tyrosinase Inhibitors Endowed with Antimelanogenic Effects” (Chemmedchem, 2021).
Entries after “also recorded” stand apart in the source; their conditions may differ. Like-named read-outs stand apart in the source and are kept apart here. Values belong to the compound of their own block, whether it stands above or below them.

Tests used:
AbTYR = conditions: cited from earlier work; for IC50: efficacy against AbTYR; for mode of inhibition: prototypical AbTYR inhibitor
[1] = molecular target: T1, TYR from Agaricus bisporus (AbTYR) (Agaricus bisporus, UniProt C7FF04); conditions: AbTYR kinetic studies; cited from earlier work
T1 construct: purchased Sigma Chemical Co. (St. Louis, MO, USA)
T1 sequence (C7FF04 1-392 limits assumed): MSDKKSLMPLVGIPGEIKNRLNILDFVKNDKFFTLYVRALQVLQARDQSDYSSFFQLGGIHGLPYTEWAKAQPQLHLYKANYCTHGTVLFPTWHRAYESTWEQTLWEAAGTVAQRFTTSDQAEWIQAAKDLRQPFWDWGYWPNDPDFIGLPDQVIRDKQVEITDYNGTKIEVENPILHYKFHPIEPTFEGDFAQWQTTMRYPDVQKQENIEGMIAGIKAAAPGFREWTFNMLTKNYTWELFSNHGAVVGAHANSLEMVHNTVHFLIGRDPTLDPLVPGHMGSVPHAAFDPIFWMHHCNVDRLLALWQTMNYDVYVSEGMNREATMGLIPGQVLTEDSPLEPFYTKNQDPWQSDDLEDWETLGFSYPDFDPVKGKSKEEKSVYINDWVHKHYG

[2] = molecular target: T1, TYR from Agaricus bisporus (AbTYR); experiment: Kinetic analysis of the tyrosinase inhibition (Lineweaver‐Burk plots); type: biochemical; conditions: L‐DOPA 0.6–5 mM
Procedure: Compounds 23, 25 and 26 were selected for kinetic studies to obtain more information about the mode of action against TYR; thereby their inhibitory effects on diphenolase activity were measured using increasing concentration of L‐DOPA. (0.6–5 mM). The reaction mixture consisted of four different concentrations of L‐DOPA (0.6–5 mM), the substrate, and AbTYR in […] (0.05 M, pH 6.8).
Compounds 23 and 25 (0.2, 0.4, and 0.8 μM), 26 (0.09, 0.18, and 0.36 μM) were added to the reaction mixture. The Michaelis‐Menten constant (Km) and maximal velocity (Vmax) of tyrosinase were determined by Lineweaver‐Burk plots.
A series of experiments were performed to determine the mode of inhibition of compounds 23, 25, 26 on tyrosinase. The reaction mixture consisted of four different concentrations of the substrate L‐DOPA (0.6–5 mM), and mushroom tyrosinase in phosphate buffer (0.05 M, pH 6.8). In addition, three different concentrations of compounds 23, 25, 26 (0.2–0.4–0.8 μM) were used for the analysis. Preincubation and measurement time were the same as discussed in mushroom tyrosinase inhibition assay. The Michaelis‐Menten constant (Km) and maximal velocity (Vmax) of tyrosinase were determined by Lineweaver‐Burk plots.

[3] = MTT assay for cell viability; type: cell-based, Murine; conditions: mouse, B16F10 melanoma cells, B16F10 cells, 100 μM (highest concentration)
Procedure: (§1) MTT assay was used to evaluate the biosafety effectiveness of 23, 25 and 26. Cells were treated with different concentration of each compound (0–100 μM), for 48 h, to determine the potential cytotoxic effect on B16F10 cells. […] To achieve a deeper characterization of most promising and potent inhibitor 26, we further examined its inhibitory effect on the tyrosinase activity in the cellular model. DOPA staining assay was performed using lysates of B16F10 cells untreated or treated with hormone with or without the tested compound 26. […] This was evident with the appearance of a darker band compared to that of untreated control (Figure 7). […] As result, the inhibitory effects of the compound 26 was also confirmed in the cellular model.
(§2) The viability of B16F10 cells was detected by the colorimetric 3‐(4,5‐dimethylthiazol‐2‐yl)‐2,5‐diphenyltetrazolium bromide (MTT) assay. A density of 5x10^3 cells/well, in the absence or presence of compounds (ranging from 1 μM to 100 μM), were seeded in 96‐well plates. The cells were incubated for 48 h at the temperature of 37 °C. MTT solution (0.5 mg/mL) was added at the end of incubation time. The medium was removed after 3 h of incubation at 37 °C. Then, DMSO was added to the precipitates and the absorbance was determined at 560 nm using a microplate reader (Multiskan FC – Thermo Scientific). The cell viability was expressed as the percentage of the amount of living cells in treated samples relative to untreated controls (100 % viability). The mean value and standard deviation (SD) were calculated from triplicate experiments.

B16F10 cells = experiment: MTT assay for cell viability; type: cell-based, Murine; conditions: B16F10 melanoma cells, 48 h, at the concentration inhibiting tyrosinase activity
Procedure: as §1, §2

[4] = test system: tyrosinase activity in B16F10 cells; experiment: Tyrosinase zymography (L‐DOPA staining) of cell lysates; type: cell-based, Murine
Procedure: as §1
The tyrosinase activity was performed by DOPA‐staining assay as previously reported but with slight modifications.[29] A day after seeding the B16F10 cells (6X104 cells/mL) the culture medium was changed by the same medium supplemented with either α‐MSH alone or α‐MSH plus compound (0–100 μM)) or kojic acid (100 μM). After incubation for 48 h, cells were washed and lysed using phosphate buffer (50 mM, pH 6.8) containing Triton X‐100 (1 %) and phenylmethyl‐sulfonyl fluoride (0.1 mM). Cellular lysates were centrifugated at 12000 g for 20 min at 4 °C. Bradford method was used to determine the protein content using BSA as standard. […]

Compound: CCOc1cccc(C(C)=NNC(N)=S)c1 [Compound 1, 2‐(1‐(3‐ethoxyphenyl)ethylidene)hydrazine‐1carbothioamide]
- IC50 (AbTYR): 0.85 µM
- mode of inhibition (AbTYR): competitive

Compound: Oc1ccc(C=Nc2nnc(S)s2)c(O)c1 [Compound 2, 4‐(((5‐mercapto‐1,3,4‐thiadiazol‐2‐yl)imino)methyl)benzene‐1,3‐diol]
- IC50 (AbTYR): 0.25 µM
- mode of inhibition (AbTYR): uncompetitive

Compound: O=C(CN1CCC(Cc2ccccc2)CC1)N1CCN(c2ccc(O)cc2)CC1 [Compound 3, 2‐(4‐benzyl‐1‐piperidyl)‐1‐[4‐(4‐hydroxyphenyl)piperazin‐1‐yl]ethanone]
- IC50 (AbTYR): 3.8 µM
- mode of inhibition (AbTYR): noncompetitive

Compound: COc1cc2[nH]cc(C(=O)CCN3CCC(Cc4ccc(F)cc4)CC3)c2cc1OC [Compound 4, 1‐(5,6‐dimethoxy‐1H‐indol‐3‐yl)‐3‐(4‐(4‐fluorobenzyl)piperidin‐1‐yl)propan‐1‐one]
- IC50 (AbTYR): 7.56 µM
- mode of inhibition (AbTYR): mixed‐type

Compound: O=C(c1ccc([N+](=O)[O-])cc1[N+](=O)[O-])N1CCN(Cc2ccc(F)cc2)CC1 [Compound 5 c, [4‐(4‐fluorobenzyl)piperazin‐1‐yl](2,4‐dinitrophenyl)methanone]
- mode of inhibition of diphenolase activity [1]: competitive inhibitor

Compound: O=C(c1cccc(F)c1C(F)(F)F)N1CCN(Cc2ccc(F)cc2)CC1 [Compound 23, 1‐[4‐(4‐Fluorobenzyl)piperazin‐1‐yl]‐[3‐fluoro‐2‐(trifluoromethyl)phenyl]methanone]
- mode of inhibition of diphenolase activity [2]: competitive inhibitors
- viability at 48 h, 100 µM [3]: > 90%
- cytotoxic effect (B16F10 cells): no cytotoxic effect; also recorded: no cytotoxicity

Compound: O=C(c1cc(F)ccc1C(F)(F)F)N1CCN(Cc2ccc(F)cc2)CC1 [Compound 25, 1‐[4‐(4‐Fluorobenzyl)piperazin‐1‐yl]‐[5‐fluoro‐2‐(trifluoromethyl)phenyl]methanone]
- mode of inhibition of diphenolase activity [2]: competitive inhibitors
- viability at 48 h, 100 µM [3]: > 90%
- cytotoxic effect (B16F10 cells): no cytotoxic effect; also recorded: no cytotoxicity

Compound: O=C(c1cccc(Cl)c1[N+](=O)[O-])N1CCN(Cc2ccc(F)cc2)CC1 [Compound 26, 1‐[4‐(4‐Fluorobenzyl)piperazin‐1‐yl]‐(3‐chloro‐2‐nitro‐phenyl)methanone]
- mode of inhibition of diphenolase activity [2]: competitive inhibitors
- viability at 48 h, 100 µM [3]: > 90%
- cytotoxic effect (B16F10 cells): absence of cytotoxicity; also recorded: no cytotoxic effect; also recorded: no cytotoxicity
- antimelanogenic effect ([4]; B16F10 cells): exerted antimelanogenic effect; also recorded: displayed antimelanogenic effects
- tyrosinase activity in cellular model (L‐DOPA staining) ([4]; lysates of α‐MSH-treated B16F10 cells, compound 0–100 μM, 48 h): decreased in a dose‐response manner
- melting point: 91 to 92 °C

Compound: O=C(c1ccc(Cl)cc1[N+](=O)[O-])N1CCN(Cc2ccc(F)cc2)CC1 [Compound 27, 1‐[4‐(4‐Fluorobenzyl)piperazin‐1‐yl]‐(4‐chloro‐2‐nitro‐phenyl)methanone]
- melting point: 141 to 142 °C

Compound: O=C(c1cc(Cl)ccc1[N+](=O)[O-])N1CCN(Cc2ccc(F)cc2)CC1 [Compound 28, 1‐[4‐(4‐Fluorobenzyl)piperazin‐1‐yl]‐(5‐chloro‐2‐nitro‐phenyl)methanone]
- melting point: 130 to 131 °C

Compound: COc1ccc(C(=O)N2CCN(Cc3ccc(F)cc3)CC2)c([N+](=O)[O-])c1 [Compound 31, 1‐[4‐(4‐Fluorobenzyl)piperazin‐1‐yl]‐(4‐methoxy‐2‐nitro‐phenyl)methanone]
- melting point: 133 to 134 °C

Compound: COc1ccc([N+](=O)[O-])c(C(=O)N2CCN(Cc3ccc(F)cc3)CC2)c1 [Compound 32, 1‐[4‐(4‐Fluorobenzyl)piperazin‐1‐yl]‐(5‐methoxy‐2‐nitro‐phenyl)methanone]
- melting point: 151 to 152 °C

Compound: O=c1cc(CO)occ1O [KA, 5‐hydroxy‐2‐(hydroxymethyl)‐4H‐pyran‐4‐one]
- mode of inhibition (AbTYR; classification from literature): competitive

The next lines start with the values.

- melting point: 100 to 102 °C
Compound: O=C(Cc1ccccc1Cl)N1CCN(Cc2ccc(F)cc2)CC1 [Compound 10, 1‐[4‐(4‐Fluorobenzyl)piperazin‐1‐yl]‐2‐(2‐chlorophenyl)ethan‐1‐one]

- melting point: 120 to 122 °C
Compound: O=C(Cc1ccc(Cl)cc1)N1CCN(Cc2ccc(F)cc2)CC1 [Compound 12, 1‐[4‐(4‐Fluorobenzyl)piperazin‐1‐yl]‐2‐(4‐chlorophenyl)ethan‐1‐one]

- melting point: 240 to 242 °C
Compound: O=C(Cc1cccc(Br)c1)N1CCN(Cc2ccc(F)cc2)CC1 [Compound 14, 1‐[4‐(4‐Fluorobenzyl)piperazin‐1‐yl]‐2‐(3‐bromophenyl)ethan‐1‐one]

- melting point: 88 to 90 °C
Compound: O=C(Cc1ccccc1[N+](=O)[O-])N1CCN(Cc2ccc(F)cc2)CC1 [Compound 16, 1‐[4‐(4‐Fluorobenzyl)piperazin‐1‐yl]‐2‐(2‐nitrophenyl)ethan‐1‐one]

- melting point: 83 to 84 °C
Compound: O=C(Cc1cccc([N+](=O)[O-])c1)N1CCN(Cc2ccc(F)cc2)CC1 [Compound 17, 1‐[4‐(4‐Fluorobenzyl)piperazin‐1‐yl]‐2‐(3‐nitrophenyl)ethan‐1‐one]

- melting point: 98 to 100 °C
Compound: O=C(Cc1ccc([N+](=O)[O-])cc1)N1CCN(Cc2ccc(F)cc2)CC1 [Compound 18, 1‐[4‐(4‐Fluorobenzyl)piperazin‐1‐yl]‐2‐(4‐nitrophenyl)ethan‐1‐one]

- melting point: 234 to 238 °C
Compound: COc1ccc(CC(=O)N2CCN(Cc3ccc(F)cc3)CC2)cc1 [Compound 19, 1‐[4‐(4‐Fluorobenzyl)piperazin‐1‐yl]‐2‐(4‐methoxyphenyl)ethan‐1‐one]
